Measured values as given in PMC9356058, “Homocysteine-targeting compounds as a new treatment strategy for diabetic wounds via inhibition of the histone methyltransferase SET7/9” (Experimental & Molecular Medicine, 2022).

Target: T1, SET7/9 (Homo sapiens, UniProt Q8WTS6)
T1 sequence (Q8WTS6 1-366): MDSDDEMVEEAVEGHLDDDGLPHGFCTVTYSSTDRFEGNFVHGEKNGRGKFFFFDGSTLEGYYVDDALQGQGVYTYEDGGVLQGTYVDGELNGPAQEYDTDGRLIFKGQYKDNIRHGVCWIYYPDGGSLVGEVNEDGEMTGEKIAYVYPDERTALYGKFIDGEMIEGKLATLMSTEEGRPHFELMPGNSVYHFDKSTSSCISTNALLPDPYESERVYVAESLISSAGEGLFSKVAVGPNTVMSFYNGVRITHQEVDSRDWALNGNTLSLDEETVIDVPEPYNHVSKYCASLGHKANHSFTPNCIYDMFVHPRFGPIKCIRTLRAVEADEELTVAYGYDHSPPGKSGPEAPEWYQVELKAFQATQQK
Assay: fluorescence polarization, displacement of SAM-binding site probe
Design: gene SETD7; SET7/9 (human recombinant) assay enzyme

## Nc1ncnc2c1ncn2[C@@H]1O[C@H](C[C@@H](N)CC[C@H](N)C(=O)O)[C@@H](O)[C@H]1O [Sine, 5’-deoxy-5’-(1,4-diamino-4-carboxybutyl)adenosine]
  IC50: 6.17 µM
